Reference: patent US20240342184A1, “USE OF ENHANCER 3C1 IN PREPARATION OF ENHANCER FOR INTERACTION BETWEEN FXR AND CASPASE 8” (CHINA PHARMACEUTICAL UNIVERSITY, priority 2021, published 2024)

Columns and labels:
[1] = tested on: human hepatocyte cell line L02; assay: MTT cell viability assay in induced hepatocyte apoptosis models; type: cell-based; settings: 3C1 at 1, 10, 100 μM, L02 cells
Description: A human hepatocyte cell line L02 was cultured in complete medium DMEM containing 10% fetal bovine serum (FBS), and placed in a culture incubator containing 5% CO2 at 37° C., and cells in a logarithmic growth phase were inoculated in a 96-well plate at a density of 5×10^3 cells/well. The cells were transfected at 50 nM after 24 h. Hepatocyte apoptosis was induced 48 h later after the transfection. […]
In addition to an apoptosis reagent, the compound 3C1 of different concentrations (1 μM, 10 μM, and 100 μM) was administered.
After the time of administration, 20 μl of MTT (5 mg/ml) was added to each well, the cells were further incubated at 37° C. for 4 h, a culture medium was aspirated and discarded, 150 μl of dimethyl sulfoxide (DMSO) was added to each well, incubation was performed at 37° C. for 10 min, and the absorbance was measured at 490 nm.

[2] = molecular target: T1, interaction between FXR protein and Caspase 8 protein (Homo sapiens, UniProt Q14790+Q96RI1); assay: Co-IP/Western blot of the FXR-Caspase 8 interaction in apoptotic L02 hepatocytes; type: cell-based; settings: L02 cells, ActD/TNFα-induced apoptosis, 3C1 at 1, 10, 100 μM for 2 h, FIG. 3
T1 construct: endogenous in cells; host or cells: L02 human hepatocyte cell line
Description: A human hepatocyte cell line L02 was cultured in a complete DMEM containing 10% FBS, and placed in a culture incubator containing 5% CO2 for culturing at 37° C., and cells in a logarithmic growth phase were inoculated in a 12-well plate at a density of 2×10^5 cells/well. After 24 h, an apoptosis model was constructed by means of human tumor necrosis factor-related apoptosis-inducing ligand (TRAIL), Actinomycin D (ActD)/tumor necrosis factor alpha (TNFα), and cycloheximide (CHX)/Fas ligand (FasL) methods respectively. Cells were treated with TRAIL at 50 ng/ml for 0, 2, 4, 8, 12, and 24 h, respectively. […] Cells were incubated with ActD/TNFα for 0, 1, 2, 4, 8, and 12 h, respectively. […] Cells were incubated with […] for 0, 2, 4, and 8 h, respectively.
1) Cells were washed twice with pre-chilled phosphate-buffered saline (PBS), an appropriate amount of pre-chilled PBS was added for the last time, a pre-chilled cell scraper was used to scrape the cells from a culture dish or a culture flask, and a suspension was transferred to a 1.5 ml electropolished (EP) tube. […] A protein concentration was determined through a bicinchoninic acid (BCA) assay. […]

[3] = tested on: C57BL/6 mice; assay: CCl4-induced liver injury of mice; type: in vivo, mouse; settings: CCl4-injected C57BL/6 mice, 3C1 at 5 or 10 mg/kg/day i.p.
Description: Before the experiment, C57BL/6 mice were acclimated for one week under the conditions of, room temperature at 22-26° C. and relative humidity of 40-60%, with light alternated with darkness for 12 h. Each mouse was housed in a separate cage with free access to water and food, and their body weights were maintained at 20-22 g. Experimental groups included a blank control group, a model group, a low-dose 3C1 administration group (5 mg/kg), and a high-dose 3C1 administration group (10 mg/kg).
The C57BL/6 mice in the low-dose 3C1 administration group and the high-dose 3C1 administration group were pre-administered with intraperitoneal injections of 3C1 at a dose of 5 mg/kg/day or 10 mg/kg/day, and the mice in other groups were subject to vehicle control. 3 days later, liver injury was induced by intraperitoneal injections of CCl4, and the control group was administered with mineral oil. The mice were euthanized 48 h later. Blood and livers of the mice were collected.
After standing at room temperature for 0.5 h, whole blood was centrifuged at 8000 rpm for 10 min, and a supernatant was transferred to a new electropolished (EP) tube to obtain serum. Alanine transaminase (ALT) and aspartate transaminase (AST) were detected according to instructions of ALT and AST assay kits.
1) 20 mg of a liver tissue sample from each mouse was weighed, 1.0 ml of RNAiso Plus was added, the samples were homogenized, and a homogenate was transferred to a centrifuge tubes, kept standing at room temperature for 5 min, and centrifuged at 4° C. and 12000 g for 5 min.
2) 800 μl of a supernatant was transferred, 160 μl of chloroform was added, and a mixture obtained was vigorously shaken for 15 sec, and then centrifuged at 12000 g for 15 min after standing at room temperature for 5 min. A sample included three layers: a bottom layer as a yellow organic phase, an upper layer as a colorless aqueous phase, and an intermediate layer.
3) 300 μl of the upper aqueous phase was carefully transferred to a new tube, 300 μl of isopropanol was added, after inverting and mixing, a mixture obtained stood at room temperature for 10 min, and after centrifugation at 12000 g for 10 min, the supernatant was discarded.
An RNA precipitate was washed with 1.0 ml of pre-chilled 75% ethanol and then centrifuged at 12000 g for 5 min, and a supernatant was discarded to obtain total RNA, which was reconstituted with 20 μl of DEPC water and diluted to […] after quantification.
According to a system ratio indicated in the specification, the RNA solution and kit components were prepared into a system with a total volume of 20 μl, and a programmed temperature was set for reverse transcription. Specific ratio requirements were as follows:
The PCR system is as follows:
Wuhan Servicebio Co., Ltd. was entrusted to complete H&E staining and Sirius Red staining.

[4] = molecular target: T1, interaction between FXR protein and Caspase 8 protein; assay: Co-IP/Western blot of the FXR-Caspase 8 interaction in healthy L02 hepatocytes; type: cell-based; settings: 3C1 at 1, 10, 100 μM for 2 h, FIG. 2
Description: 1) Cells were washed twice with pre-chilled phosphate-buffered saline (PBS), an appropriate amount of pre-chilled PBS was added for the last time, a pre-chilled cell scraper was used to scrape the cells from a culture dish or a culture flask, and a suspension was transferred to a 1.5 ml electropolished (EP) tube. After centrifugation at 4° C. and 4000 rpm for 5 min, a supernatant was discarded, an appropriate amount of an NP40 lysis buffer was added, a mixture obtained was shaken evenly, and the cells were ultrasonicated for a total of 3 times (5 s per time) until the cells were completely lysed. After centrifugation at 4° C. and 14000 g for 10 min, a supernatant was transferred to a new EP tube, to obtain a protein lysis buffer. A protein concentration was determined through a bicinchoninic acid (BCA) assay.
2) 25 μl of Protein A Beads was taken and blocked with 5% bovine serum albumin (BSA) for 1 h at room temperature, and then washed with the PBS for 3 times, and a supernatant was discarded after centrifugation at 14000 g for 1 min each time. The protein lysis buffer with a uniform concentration was added to the Beads, rocking-turn was performed at 4° C. for 1 h, and a sample was pre-cleared. After centrifugation at 14000 g for 1 min, a supernatant was transferred to a new EP tube. […]

T1 sequence (Q96RI1 whole entry): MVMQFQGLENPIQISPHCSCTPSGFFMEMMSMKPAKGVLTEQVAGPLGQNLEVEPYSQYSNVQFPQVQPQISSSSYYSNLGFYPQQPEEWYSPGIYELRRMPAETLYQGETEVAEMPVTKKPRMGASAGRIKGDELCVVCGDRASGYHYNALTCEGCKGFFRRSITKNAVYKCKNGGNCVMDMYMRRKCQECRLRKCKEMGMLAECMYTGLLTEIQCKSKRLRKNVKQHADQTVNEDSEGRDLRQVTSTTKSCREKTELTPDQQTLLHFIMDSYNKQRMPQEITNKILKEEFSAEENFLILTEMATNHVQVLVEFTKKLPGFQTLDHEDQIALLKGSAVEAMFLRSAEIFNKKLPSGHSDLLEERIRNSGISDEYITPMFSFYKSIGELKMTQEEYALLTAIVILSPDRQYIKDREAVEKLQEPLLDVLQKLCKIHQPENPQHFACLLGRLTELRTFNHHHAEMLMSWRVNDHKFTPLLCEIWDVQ
T1 sequence (Q14790 217-479): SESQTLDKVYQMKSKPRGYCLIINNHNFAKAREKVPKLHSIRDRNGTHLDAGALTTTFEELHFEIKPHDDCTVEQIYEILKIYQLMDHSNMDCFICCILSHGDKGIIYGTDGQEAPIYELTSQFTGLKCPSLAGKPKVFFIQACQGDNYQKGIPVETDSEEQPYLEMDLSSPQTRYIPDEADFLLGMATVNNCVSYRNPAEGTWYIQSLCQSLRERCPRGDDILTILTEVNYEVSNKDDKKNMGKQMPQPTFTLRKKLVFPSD

Cc1n[nH]c(=S)nc1Nc1ccc(F)c(Cl)c1 [Compound 3C1]
anti-apoptotic effect (cell viability, MTT) ([1]; ActD 30 min then TNFα 20 ng/ml for 8 h): significant anti-apoptotic effects | anti-apoptotic effect (cell viability, MTT) ([1]; CHX 50 μM 30 min then FasL 50 ng/ml for 8 h): significant anti-apoptotic effects | anti-apoptotic effect (cell viability, MTT) ([1]; TRAIL 50 ng/ml for 24 h): significant anti-apoptotic effects | interaction between FXR protein and Caspase 8 protein in apoptotic hepatocytes [2]: could reverse this reduction | serum ALT level ([3]; FIG. 5A): significantly reduced the elevated levels | serum AST level ([3]; FIG. 5B): significantly reduced the elevated levels | liver pathology, H&E staining ([3]; FIG. 5C): significant remission in the disorders of liver lobule structures, decreased infiltration of inflammatory cell, and less collagen fibers in the portal area | liver pathology, Sirius Red staining (red collagen fibers) ([3]; FIG. 5D): hyperplasia of red collagen fibers in the livers was significantly alleviated | liver Timp1 mRNA level ([3]; RT-PCR, P<0.001, FIG. 5E): significantly reduced their mRNA levels (P<0.001) in a dose-dependent manner | liver Timp2 mRNA level ([3]; RT-PCR, P<0.001, FIG. 5F): significantly reduced their mRNA levels (P<0.001) in a dose-dependent manner | interaction between FXR protein and Caspase 8 protein in healthy cells [4]: obviously enhanced the interaction between FXR protein and Caspase 8 protein in healthy cells in a dose-dependent manner
